Assay results as given in patent US5840684A, “Glycopeptide antibiotic derivatives” (Eli Lilly and Company, priority 1995, dated 1998).
Values after ≈ are worked out from the molar mass of the structure shown.

Columns and labels:
[1] = system: Staphylococcus aureus SA1199A; assay: broth micro-dilution MIC; assay type: cell-based
Description: (§1) The MIC's were determined using a standard broth micro-dilution assay.

[2] = system: Staphylococcus aureus 489; assay: broth micro-dilution MIC; assay type: cell-based
Description: as §1

[3] = system: Staphylococcus aureus SA1199; assay: broth micro-dilution MIC; assay type: cell-based
Description: as §1

[4] = system: Staphylococcus aureus 446; assay: broth micro-dilution MIC; assay type: cell-based
Description: as §1

[5] = system: Entercoccus faecium 276; assay: broth micro-dilution MIC; assay type: cell-based
Description: as §1

[6] = system: Streptococcus pyogenes C203; assay: broth micro-dilution MIC; assay type: cell-based
Description: as §1

[7] = system: Entercoccus faecium 180-1; assay: broth micro-dilution MIC; assay type: cell-based
Description: as §1

[8] = system: Staphylococcus aureus 491; assay: broth micro-dilution MIC; assay type: cell-based
Description: as §1

[9] = system: Staphylococcus aureus 447; assay: broth micro-dilution MIC; assay type: cell-based
Description: as §1

[10] = system: Staphylococcus aureus X400; assay: broth micro-dilution MIC; assay type: cell-based
Description: as §1

[11] = system: Staphylococcus aureus X778; assay: broth micro-dilution MIC; assay type: cell-based
Description: as §1

[12] = system: Staphylococcus epidermidis 270; assay: broth micro-dilution MIC; assay type: cell-based
Description: (§2) The formula I compounds have in vitro and in vivo activity against Gram-positive pathogenic bacteria. The MIC's were determined using a standard broth micro-dilution assay.

[13] = system: Entercoccus faecium 2041; assay: broth micro-dilution MIC; assay type: cell-based; conditions: Entercoccus faecium 2041
Description: as §2

[14] = system: Streptococcus pneumoniae P1; assay: broth micro-dilution MIC; assay type: cell-based
Description: as §2

[15] = system: Staphylococcus haemolyticus 105; assay: broth micro-dilution MIC; assay type: cell-based
Description: as §2

[16] = system: Entercoccus faecium 180; assay: broth micro-dilution MIC; assay type: cell-based; conditions: Entercoccus faecium 180
Description: as §2

[17] = system: Enterococcus gallinarum 245; assay: broth micro-dilution MIC; assay type: cell-based; conditions: Enterococcus gallinarum 245
Description: as §2

[18] = system: Staphylococcus haemolyticus 415; assay: broth micro-dilution MIC; assay type: cell-based
Description: as §2

[19] = system: Staphylococcus aureus SA1199B; assay type: cell-based
Description: as §1

[20] = system: Staphylococcus aureus S13E; assay type: cell-based
Description: as §1

[21] = system: vancomycin-resistant enterococci; assay: broth micro-dilution, mean geometric MIC; assay type: cell-based, Enterococcus faecium and Enterococcus faecalis; conditions: enterococci, 24-hour incubation
[22] = system: vancomycin-susceptible enterococci; assay: broth micro-dilution, mean geometric MIC; assay type: cell-based, Enterococcus faecium and Enterococcus faecalis; conditions: enterococci, 24-hour incubation

| SMILES | MIC [1] [µg/mL] | MIC [2] [µg/mL] | MIC [3] [µg/mL] | MIC [4] [µg/mL] | MIC [5] [µg/mL] | MIC [6] [µg/mL] | MIC [7] [µg/mL] | MIC [8] [µg/mL] | MIC [9] [µg/mL] | MIC [10] [µg/mL] | MIC [11] [µg/mL] | MIC [12] [µg/mL] | MIC [13] [µg/mL] | MIC [14] [µg/mL] | MIC [15] [µg/mL] | MIC [16] [µg/mL] | MIC [17] [µg/mL] | MIC [18] [µg/mL] | MIC [19] [µg/mL] | MIC [20] [µg/mL] | also measured |
| --- | --- | --- | --- | --- | --- | --- | --- | --- | --- | --- | --- | --- | --- | --- | --- | --- | --- | --- | --- | --- | --- |
| CNC(CC(C)C)C(=O)NC1C(=O)NC(CC(N)=O)C(=O)NC2C(=O)NC3C(=O)NC(C(=O)NC(C(=O)O)c4cc(O)cc(O)c4-c4cc3ccc4O)C(OC3CC(C)(N)C(O)C(C)O3)c3ccc(c(Cl)c3)Oc3cc2cc(c3OC2OC(CO)C(O)C(O)C2OC2CC(C)(NCc3c4ccccc4cc4ccccc34)C(O)C(C)O2)Oc2ccc(cc2Cl)C1O (stereo not drawn) [Compound 13] | ≤ 0.06 | 1 (≈ 0.561 µM) | 0.5 (≈ 0.28 µM) | 2 (≈ 1.12 µM) | 0.5 (≈ 0.28 µM) | ≤ 0.06 | ≤ 0.06 | 2 (≈ 1.12 µM) | 8 (≈ 4.49 µM) | 1 (≈ 0.561 µM) | 2 (≈ 1.12 µM) | 8 (≈ 4.49 µM) | 0.125 (≈ 0.0701 µM) | ≤ 0.06 | 8 (≈ 4.49 µM) | 2 (≈ 1.12 µM) | 0.25 (≈ 0.14 µM) | 1 (≈ 0.561 µM) | 4 (≈ 2.24 µM) | 0.25 (≈ 0.14 µM) | mean geometric MIC, Vancomycin Resistant Strains [21]: 19 µg/mL; mean geometric MIC, Vancomycin Sensitive Strains [22]: 0.76 µg/mL |
| CNC(CC(C)C)C(=O)NC1C(=O)NC(CC(N)=O)C(=O)NC2C(=O)NC3C(=O)NC(C(=O)NC(C(=O)O)c4cc(O)cc(O)c4-c4cc3ccc4O)C(OC3CC(C)(N)C(O)C(C)O3)c3ccc(c(Cl)c3)Oc3cc2cc(c3OC2OC(CO)C(O)C(O)C2OC2CC(C)(NCc3cccnc3)C(O)C(C)O2)Oc2ccc(cc2Cl)C1O (stereo not drawn) [Compound 24] | ≤ 0.06 | ≤ 0.06 | 0.5 (≈ 0.297 µM) | 0.5 (≈ 0.297 µM) | 0.25 (≈ 0.148 µM) | ≤ 0.06 | ≤ 0.06 | 0.5 (≈ 0.297 µM) | 1 (≈ 0.594 µM) | 0.25 (≈ 0.148 µM) | 0.125 (≈ 0.0742 µM) | 1 (≈ 0.594 µM) | ≤ 0.06 | ≤ 0.06 | 4 (≈ 2.38 µM) | 4 (≈ 2.38 µM) | 0.25 (≈ 0.148 µM) | ≤ 0.06 | 2 (≈ 1.19 µM) | ≤ 0.06 | mean geometric MIC, Vancomycin Resistant Strains [21]: 54 µg/mL; mean geometric MIC, Vancomycin Sensitive Strains [22]: 0.67 µg/mL |
| CNC(CC(C)C)C(=O)NC1C(=O)NC(CC(N)=O)C(=O)NC2C(=O)NC3C(=O)NC(C(=O)NC(C(=O)O)c4cc(O)cc(O)c4-c4cc3ccc4O)C(OC3CC(C)(N)C(O)C(C)O3)c3ccc(c(Cl)c3)Oc3cc2cc(c3OC2OC(CO)C(O)C(O)C2OC2CC(C)(NCc3ccnc4ccccc34)C(O)C(C)O2)Oc2ccc(cc2Cl)C1O (stereo not drawn) [Compound 27] | ≤ 0.06 | ≤ 0.06 | 0.5 (≈ 0.288 µM) | 2 (≈ 1.15 µM) | 0.5 (≈ 0.288 µM) | ≤ 0.06 | 0.5 (≈ 0.288 µM) | 1 (≈ 0.577 µM) | 8 (≈ 4.61 µM) | 0.5 (≈ 0.288 µM) | 0.5 (≈ 0.288 µM) | 4 (≈ 2.31 µM) | 0.125 (≈ 0.0721 µM) | ≤ 0.06 | 16 (≈ 9.23 µM) | 8 (≈ 4.61 µM) | 0.5 (≈ 0.288 µM) | 8 (≈ 4.61 µM) | 1 (≈ 0.577 µM) | 0.125 (≈ 0.0721 µM) | mean geometric MIC, Vancomycin Resistant Strains [21]: 45 µg/mL; mean geometric MIC, Vancomycin Sensitive Strains [22]: 1.5 µg/mL |
| CNC(CC(C)C)C(=O)NC1C(=O)NC(CC(N)=O)C(=O)NC2C(=O)NC3C(=O)NC(C(=O)NC(C(=O)O)c4cc(O)cc(O)c4-c4cc3ccc4O)C(OC3CC(C)(N)C(O)C(C)O3)c3ccc(c(Cl)c3)Oc3cc2cc(c3OC2OC(CO)C(O)C(O)C2OC2CC(C)(NCc3cccc(Oc4ccc(Cl)cc4)c3)C(O)C(C)O2)Oc2ccc(cc2Cl)C1O (stereo not drawn) [Compound 86] | ≤ 0.06 | 1 (≈ 0.553 µM) | 0.5 (≈ 0.276 µM) | 1 (≈ 0.553 µM) | ≤ 0.06 | ≤ 0.06 | ≤ 0.06 | 1 (≈ 0.553 µM) | 0.5 (≈ 0.276 µM) | 1 (≈ 0.553 µM) | 1 (≈ 0.553 µM) | 1 (≈ 0.553 µM) | ≤ 0.06 | ≤ 0.06 | 1 (≈ 0.553 µM) | ≤ 0.06 | 1 (≈ 0.553 µM) | 1 (≈ 0.553 µM) | 1 (≈ 0.553 µM) | 1 (≈ 0.553 µM) | mean geometric MIC, Vancomycin Resistant Strains [21]: 1.4 µg/mL; mean geometric MIC, Vancomycin Sensitive Strains [22]: 0.036 µg/mL |
| CN[C@H](CC(C)C)C(=O)N[C@H]1C(=O)N[C@@H](CC(N)=O)C(=O)N[C@H]2C(=O)N[C@H]3C(=O)N[C@H](C(=O)N[C@H](C(=O)O)c4cc(O)cc(O)c4-c4cc3ccc4O)[C@H](O[C@H]3C[C@](C)(N)[C@@H](O)[C@H](C)O3)c3ccc(c(Cl)c3)Oc3cc2cc(c3O[C@@H]2O[C@H](CO)[C@@H](O)[C@H](O)[C@H]2O[C@H]2C[C@](C)(NCc3cccc(-c4ccccc4)c3)[C@@H](O)[C@H](C)O2)Oc2ccc(cc2Cl)[C@H]1O [Compound 91] | ≤ 0.06 | ≤ 0.06 | ≤ 0.06 | 0.5 (≈ 0.284 µM) | ≤ 0.06 | ≤ 0.06 | ≤ 0.06 | 1 (≈ 0.569 µM) | 0.5 (≈ 0.284 µM) | 0.5 (≈ 0.284 µM) | ≤ 0.06 | 0.5 (≈ 0.284 µM) | ≤ 0.06 | ≤ 0.06 | 2 (≈ 1.14 µM) | 0.5 (≈ 0.284 µM) | 2 (≈ 1.14 µM) | 2 (≈ 1.14 µM) | 0.5 (≈ 0.284 µM) | ≤ 0.06 | mean geometric MIC, Vancomycin Resistant Strains [21]: 2.8 µg/mL; mean geometric MIC, Vancomycin Sensitive Strains [22]: 0.11 µg/mL |
| CN[C@H](CC(C)C)C(=O)N[C@H]1C(=O)N[C@@H](CC(N)=O)C(=O)N[C@H]2C(=O)N[C@H]3C(=O)N[C@H](C(=O)N[C@H](C(=O)O)c4cc(O)cc(O)c4-c4cc3ccc4O)[C@H](O[C@H]3C[C@](C)(N)[C@@H](O)[C@H](C)O3)c3ccc(c(Cl)c3)Oc3cc2cc(c3O[C@@H]2O[C@H](CO)[C@@H](O)[C@H](O)[C@H]2O[C@H]2C[C@](C)(NCc3ccc(Oc4ccc(C)cc4)cc3)[C@@H](O)[C@H](C)O2)Oc2ccc(cc2Cl)[C@H]1O [Compound 95] | ≤ 0.06 | 2 (≈ 1.12 µM) | 0.5 (≈ 0.28 µM) | 0.5 (≈ 0.28 µM) | 0.125 (≈ 0.0699 µM) | ≤ 0.06 | ≤ 0.06 | 1 (≈ 0.559 µM) | 0.5 (≈ 0.28 µM) | 1 (≈ 0.559 µM) | 1 (≈ 0.559 µM) | 1 (≈ 0.559 µM) | ≤ 0.06 | ≤ 0.06 | 1 (≈ 0.559 µM) | 0.5 (≈ 0.28 µM) | 1 (≈ 0.559 µM) | 1 (≈ 0.559 µM) | 1 (≈ 0.559 µM) | 2 (≈ 1.12 µM) | mean geometric MIC, Vancomycin Resistant Strains [21]: 1.7 µg/mL; mean geometric MIC, Vancomycin Sensitive Strains [22]: 0.054 µg/mL |
